# Measured values: patent US10793892B2, “Method for detecting the presence of expanded spectrum β-lactamase-producing bacteria in a sample” (INSERM (INSTITUT NATIONAL DE LA SANTE ET DE LA RECHERCHE …, priority 2011, dated 2020)
# Assays:
# Enterobacteriaceae = format: biochemical; details: all CTX-M producers (n=147); tazobactam added to cefotaxime well
# Experimental: Strains were isolated on Mueller-Hinton agar (Biorad, Marnes-la-Coquette, France) and incubated at 37° C. for 16 h to 24 h before performing the NDP rapid ESBL test as follows. One calibrated inoculated loop (10 μl) of the tested strain was resuspended in 150 μl of 20 mM Tris-HCl lysis buffer previously distributed in Microbead tubes (Ultraclean Microbial DNA isolation kit Bead Tubes, MO BIO Laboratories, Carlsbad, USA). Mechanical lysis of bacteria was performed by strong agitation of Microbead tubes using a vortex adapter (MO BIO Laboratories) for 30 min at room temperature. This bacterial suspension was centrifuged at 10,000×g at room temperature for 5 min. Thirty μl of the supernatant was mixed in a well of a 96-well tray with 100 μl of a 1 ml solution made of 3 mg of purified cefotaxime sodium salt (Sigma-Aldrich, Saint-Quentin-Fallavier, France) in a pH 7.8 phenol red solution. […] The phenol red solution was made by taking 2 ml of a concentrated pH 8 phenol solution (made from a mixture of phenol red 0.5% in distilled water) to which 16.6 ml of distilled water was added. The pH value was then adjusted to a 7.8 value by adding drops of a 1 N NaOH solution. Mixture of the phenol red solution and the enzymatic suspension being tested was incubated at 37° C. for 30 min. Similarly, culture extracts were analyzed in wells containing cefotaxime and tazobactam (4 mg/ml). […]
# E. coli = test: Susceptibility testing, MIC by Etest; format: cell-based, Escherichia coli
# Experimental: (§1) Susceptibility testing was performed by determining MIC values using the Etest® (AB bioMérieux; Solna, Sweden) on Mueller-Hinton agar plates at 37° C. and results were recorded according to US guidelines (CLSI), as updated in 2012 (2). The breakpoints for cefotaxime are susceptible (S)≤1 and resistant (R)≥4 μg/ml, and for ceftazidime S≤4 and R≥16 μg/ml.
# S. enterica = test: Susceptibility testing, MIC by Etest; format: cell-based, Salmonella enterica
# Experimental: as §1
# K. pneumoniae = test: Susceptibility testing, MIC by Etest; format: cell-based, Klebsiella pneumoniae
# Experimental: as §1
# E. cloacae = test: Susceptibility testing, MIC by Etest; format: cell-based, Enterobacter cloacae
# Experimental: as §1
# C. freundii = test: Susceptibility testing, MIC by Etest; format: cell-based, Citrobacter freundii
# Experimental: as §1
# P. mirabilis = test: Susceptibility testing, MIC by Etest; format: cell-based, Proteus mirabilis
# Experimental: as §1
# E. aerogenes = test: Susceptibility testing, MIC by Etest; format: cell-based, Enterobacter aerogenes
# Experimental: as §1
# P. stuartii = test: Susceptibility testing, MIC by Etest; format: cell-based, Providencia stuartii; details: P. stuartii TEM-24, n=1
# Experimental: as §1
# K. oxytoca = test: Susceptibility testing, MIC by Etest; format: cell-based, Klebsiella oxytoca; details: K. oxytoca Wild-type penicillinase, n=1
# Experimental: as §1
# M. morganii = test: Susceptibility testing, MIC by Etest; format: cell-based, Morganella morganii; details: M. morganii Wild-type, chromosome-encoded cephalosporinase, n=2
# Experimental: as §1
# C. brakii = test: Susceptibility testing, MIC by Etest; format: cell-based; details: C. brakii Wild-type, chromosome-encoded cephalosporinase, n=1
# Experimental: as §1
# E. sakazakii = test: Susceptibility testing, MIC by Etest; format: cell-based; details: overexpressed chromosome-encoded cephalosporinase, n=1
# Experimental: as §1
# S. ficaria = test: Susceptibility testing, MIC by Etest; format: cell-based; details: S. ficaria Wild-type, chromosome-encoded cephalosporinase, n=1
# Experimental: as §1
# S. marcescens = test: Susceptibility testing, MIC by Etest; format: cell-based, Serratia marcescens; details: S. marcescens Wild-type, chromosome-encoded cephalosporinase, n=2
# Experimental: as §1
compound,measurement,setting,value
C[C@]1(Cn2ccnn2)[C@H](C(=O)O)N2C(=O)C[C@H]2S1(=O)=O [tazobactam],color of the wells,Enterobacteriaceae,remained red
"CC(C)(O/N=C(\C(=O)N[C@@H]1C(=O)N2C(C(=O)[O-])=C(C[n+]3ccccc3)CS[C@H]12)c1csc(N)n1)C(=O)O [CAZ, ceftazidime]",MICs range,"E. coli; E. coli ACC-1, n=1, first line",>32 µg/mL
same,MICs range,"E. coli; E. coli ACC-1, n=1, second line",>32 µg/mL
same,MICs range,"E. coli; E. coli CMY-2, n=1",>32 µg/mL
same,MICs range,"E. coli; E. coli CTX-M-1, n=16",0.5 to 2 µg/mL
same,MICs range,"E. coli; E. coli CTX-M-2, n=3",1.5 to 4 µg/mL
same,MICs range,"E. coli; E. coli CTX-M-3, n=1",4 µg/mL
same,MICs range,"E. coli; E. coli CTX-M-9, n=1",0.19 µg/mL
same,MICs range,"E. coli; E. coli CTX-M-14, n=15",0.5 to 4 µg/mL
same,MICs range,"E. coli; E. coli CTX-M-15, n=46",0.5 to 24 µg/mL
same,MICs range,"E. coli; E. coli CTX-M-27, n=6",0.5 to 4 µg/mL
same,MICs range,"E. coli; E. coli CTX-M-28, n=1",8 µg/mL
same,MICs range,"E. coli; E. coli CTX-M-32, n=1",6 µg/mL
same,MICs range,"E. coli; E. coli CTX-M-97, n=1",2 µg/mL
same,MICs range,"E. coli; E. coli DHA-1, n=1",1 µg/mL
same,MICs range,"E. coli; E. coli SHV-2a, n=3",2 to 4 µg/mL
same,MICs range,"E. coli; E. coli SHV-3, n=1",>32 µg/mL
same,MICs range,"E. coli; E. coli SHV-12, n=1",8 µg/mL
same,MICs range,"E. coli; E. coli TEM-1 penicillinase, n=5",0.09 to 0.12 µg/mL
same,MICs range,"E. coli; E. coli TEM-12, n=1",8 µg/mL
same,MICs range,"E. coli; E. coli TEM-29, n=2",4 µg/mL
same,MICs range,"E. coli; E. coli TEM-133, n=1",12 µg/mL
same,MICs range,"E. coli; E. coli VEB-1, n=1",>32 µg/mL
same,MICs range,"E. coli; E. coli Wild-type, no resistance, n=5",0.05 to 0.19 µg/mL
same,MICs range,"S. enterica; S. enterica CTX-M-1, n=1",0.75 µg/mL
same,MICs range,"S. enterica; S. enterica Wild-type, no resistance, n=1",0.19 µg/mL
same,MICs range,"K. pneumoniae; K. pneumoniae CTX-M-3, n=1",1.5 µg/mL
same,MICs range,"K. pneumoniae; K. pneumoniae CTX-M-14, n=3",0.5 to 6 µg/mL
same,MICs range,"K. pneumoniae; K. pneumoniae DHA-1, n=1",>32 µg/mL
same,MICs range,"K. pneumoniae; K. pneumoniae DHA-2, n=1",>32 µg/mL
same,MICs range,"K. pneumoniae; K. pneumoniae GES-1, n=1",4 µg/mL
same,MICs range,"K. pneumoniae; K. pneumoniae SHV-2a, n=2",1 to 4 µg/mL
same,MICs range,"K. pneumoniae; K. pneumoniae SHV-2a, n=4",2 to 4 µg/mL
same,MICs range,"K. pneumoniae; K. pneumoniae SHV-5, n=2",16 to 32 µg/mL
same,MICs range,"K. pneumoniae; K. pneumoniae SHV-12, n=1",8 µg/mL
same,MICs range,"K. pneumoniae; K. pneumoniae SHV-12, n=2",16 to 32 µg/mL
same,MICs range,"K. pneumoniae; K. pneumoniae SHV-28, n=3",>32 µg/mL
same,MICs range,"K. pneumoniae; K. pneumoniae TEM-52, n=2",>32 µg/mL
same,MICs range,"K. pneumoniae; K. pneumoniae Wild-type penicillinase, n=2",0.03 µg/mL
same,MICs range,"E. cloacae; E. cloacae CTX-M-14, n=1",8 µg/mL
same,MICs range,"E. cloacae; E. cloacae CTX-M-15, n=17",2 to 16 µg/mL
same,MICs range,"E. cloacae; E. cloacae GES-5, n=1",>32 µg/mL
same,MICs range,"E. cloacae; E. cloacae PER-1, n=1",>32 µg/mL
same,MICs range,"E. cloacae; E. cloacae SHV-5, n=1",>32 µg/mL
same,MICs range,"E. cloacae; E. cloacae TEM-3, n=2",>16 µg/mL
same,MICs range,"E. cloacae; E. cloacae VEB-1, n=1",>32 µg/mL
same,MICs range,"E. cloacae; E. cloacae Wild-type, chromosome-encoded cephalosporinase, n=5",0.12 to 0.38 µg/mL
same,MICs range,"E. cloacae; E. cloacae, overexpressed chromosome-encoded cephalosporinase, n=2",>32 µg/mL
same,MICs range,"E. cloacae; E. cloacae, overexpressed chromosome-encoded cephalosporinase, n=3",>32 µg/mL
same,MICs range,"C. freundii; C. freundii TEM-3, n=1",>16 µg/mL
same,MICs range,"C. freundii; C. freundii Wild-type, chromosome-encoded cephalosporinase, n=1",0.25 µg/mL
same,MICs range,"P. mirabilis; P. mirabilis ACC-1, n=1",>32 µg/mL
same,MICs range,"P. mirabilis; P. mirabilis CTX-M-14, n=1",0.75 µg/mL
same,MICs range,"P. mirabilis; P. mirabilis CTX-M-15, n=1",8 µg/mL
same,MICs range,"P. mirabilis; P. mirabilis PER-1, n=1",>32 µg/mL
same,MICs range,"P. mirabilis; P. mirabilis TEM-21, n=1",4 µg/mL
same,MICs range,"P. mirabilis; P. mirabilis TEM-52, n=1",16 µg/mL
same,MICs range,"E. aerogenes; E. aerogenes TEM-121, n=1",>32 µg/mL
same,MICs range,"E. aerogenes; E. aerogenes Wild-type, chromosome-encoded cephalosporinase, n=1",0.25 µg/mL
same,MICs range,P. stuartii,8 µg/mL
same,MICs range,K. oxytoca,0.06 µg/mL
same,MICs range,M. morganii,0.09 to 1 µg/mL
same,MICs range,C. brakii,0.25 µg/mL
same,MICs range,E. sakazakii,>32 µg/mL
same,MICs range,S. ficaria,0.09 µg/mL
same,MICs range,S. marcescens,0.09 µg/mL
